The record followed here is patent publication US20070104750A1, “Pesticidally active compositions having enhanced activity” (priority 2005, published 2007).

Like-named read-outs stand apart in the source and are kept apart here.

The subject of series [1] is beet armyworm (Spodoptera exigua) larvae.
On series [2], the source says:
Determination of whether a pesticidally active ingredient is reactive with singlet oxygen can be determined from a simple singlet oxygen reactivity test, comprising irradiating a solution of a pesticidally active ingredient in the presence of a photosensitizer, e.g. methylene blue or rose bengal, with a suitable light source, e.g. a sodium lamp, whose spectral output is capable of allowing light absorption by the photo-sensitizer while bypassing the absorption band of the pesticidally active ingredient. The light source, in combination with the photosensitizer and molecular oxygen, will generate singlet oxygen. The observed degradation of the pesticidally active ingredient by a suitable analytical technique, such as HPLC, is indicative of its reaction with singlet oxygen. This test can be conducted in solvents in which singlet oxygen has a relatively long lifetime, e.g. perdeuterated versions of common solvents and carbon disulfide in order to speed the rate of reaction and thereby maximize the detectability of the degradation. Decay constants for singlet oxygen in various solvents are well known in the art and can be found in J. Phys. […] An Expanded and Revised Compilation” by Francis Wilkinson, W. Phillip Helman and Alberta B. Ross; Table 1, entitled Decay Constants for Singlet Oxygen in Various Solvents.
Confirmation of the degradation of the pesticidally active ingredient by singlet oxygen can be obtained further by adding a molecule which is capable of deactivating singlet oxygen by physical or chemical means, i.e. a singlet oxygen quencher, to the pesticidally active ingredient-photosensitizer solution. Suitable singlet oxygen quenchers include, for example DABCO (1,4-diazabicyclo[2.2.2]octane) and beta-carotene. A reduction in the rate of degradation of the pesticidally active ingredient in the presence of a singlet oxygen quencher confirms that the initial degradation was due to the reaction with singlet oxygen.
The solution was irradiated with a Philips 150 watt high pressure sodium lamp (sample was ca. 20 cm from lamp). […] The experiment was repeated with the inclusion of the singlet oxygen quencher DABCO (1.0×10^−3M, diazabicyclooctane Aldrich). A value greater than one indicates a slowing of the degradation due to singlet oxygen in the presence of the quencher.

[3] abbreviates: activity enhancer alone, 10,000 ppm, 4 DAT.
Where [4] appears, read: activity enhancer alone, 10,000 ppm, 7 DAT.
[5] abbreviates: activity enhancer alone, 1000 ppm, 9 DAT.

Regarding “BSA (as 30% aqueous suspension): Bovine Serum Albumin available from Sigma”, the Percent mortality in series [1] (setting [3]) and in series [1] (setting [4]) was 0% throughout.
As to Abamectin, the kwo/kw was determined as 1.0 in series [2] (potential activity enhancer Zein, weight ratio I/II 1:20, isopropanol(85)/water(15)) and 37.2 in series [2] (quencher DABCO, weight ratio active ingredient/DABCO 7.8:1, acetonitrile-d3).
Consider `CCO[C@@H]1[C@@H](OC)[C@H](C)O[C@@H](O[C@@H]2C[C@H]3CC[C@@H]4[C@@H](C=C5C(=O)[C@H](C)[C@@H](O[C@H]6CC[C@H](N(C)C)[C@@H](C)O6)CCC[C@H](CC)OC(=O)C[C@H]54)[C@@H]3C2)[C@@H]1OC` [DE-175 J, (2R,3aR,5aR,5bS,9S,13S,14R,16aS,16bR)-13-{[(2R,5S,6R)-5-(dimethylamino)-6-methyltetrahydro-2H-pyran-2-yl]oxy}-9-ethyl-14-methyl-7,15-dioxo-2,3,3a,4,5,5a,5b,6,7,9,10,11,12,13,14,15,16a,16b-octadecahydro-1H-as-indaceno[3,2-d]oxacyclododecin-2-yl 6-deoxy-3-O-ethyl-2,4-di-O-methyl-α-L-mannopyranoside], for which the “rate constant for the degradation” value in series [2] came out at 0.1317 min⁻¹. The kwo/kw in series [2] (potential activity enhancer TEPA, weight ratio I/II 3.3:1, acetonitrile) amounted to 1.9; in series [2] (potential activity enhancer Tryptophan, weight ratio I/II 1:1, methanol), 1.15; in series [2] (potential activity enhancer Tryptophan, weight ratio I/II 1:10, methanol), 1.3; in series [2] (potential activity enhancer Zein, weight ratio I/II 1:5, isopropanol(85)/water(15)), 1.0; in series [2] (quencher DABCO, weight ratio active ingredient/DABCO 3.3:1, acetonitrile), 5.1.
Consider `CC(Cc1ccc(C(C)(C)C)cc1)CN1C[C@@H](C)O[C@@H](C)C1` (stereo partly drawn) [Fenpropimorph], for which the kwo/kw in series [2] (quencher DABCO, weight ratio active ingredient/DABCO 2.7:1, acetonitrile) stood at 7.7.
`C=CCOC(Cn1ccnc1)c1ccc(Cl)cc1Cl` (stereo not drawn) [Imazalil]: the kwo/kw in series [2] (quencher DABCO, weight ratio active ingredient/DABCO 2.6:1, acetonitrile) is 4.4.
Regarding `C1CN2CCN1CC2` [DABCO, diazabicyclooctane], the Percent mortality in series [1] (activity enhancer alone, 1000 ppm, 2 DAT) came to 0%; in series [1] (activity enhancer alone, 1000 ppm, 7 DAT), 0%; in series [1] (setting [5]), 0%.
In the case of `C1N2CN3CN1CN(C2)C3` [HMTA, hexamethylenetetramine], the Percent mortality in series [1] (setting [5]) is given as 4%.
Consider “BSA (as 96% powder): Bovine Serum Albumin available from Sigma”, for which the Percent mortality in series [1] (setting [3]) and in series [1] (setting [4]) was 0% each time.

B1: Egg albumin: Egg Albumin available from Sigma (protein, UniProt P01012 2-386, looked up)
Ovalbumin: GSIGAASMEFCFDVFKELKVHHANENIFYCPIAIMSALAMVYLGAKDSTRTQINKVVRFDKLPGFGDSIEAQCGTSVNVHSSLRDILNQITKPNDVYSFSLASRLYAEERYPILPEYLQCVKELYRGGLEPINFQTAADQARELINSWVESQTNGIIRNVLQPSSVDSQTAMVLVNAIVFKGLWEKAFKDEDTQAMPFRVTEQESKPVQMMYQIGLFRVASMASEKMKILELPFASGTMSMLVLLPDEVSGLEQLESIINFEKLTEWTSSNVMEERKIKVYLPRMKMEEKYNLTSVLMAMGITDVFSSSANLSGISSAESLKISQAVHAAHAEINEAGREVVGSAEAGVDAASVSEEFRADHPFLFCIKHIATNAVLFFGRCVSP
With B1, the Percent mortality is listed as 0% in series [1] (activity enhancer alone, 1000 ppm, 3 DAT); 0% in series [1] (activity enhancer alone, 1000 ppm, 5 DAT); 0% in series [1] (activity enhancer alone, 1000 ppm, 8 DAT).
